Assay in all cases: DTP human tumour cell line panel, 48 h
For experiment [1], the system named is UO-31.
For experiment [2], the system named is U-251.
For experiment [3], the system named is HOP-62.
Experiment [4] has as its system NCI-H522.
In experiment [5] the test system is NCI-H226.
Experiment [6] concerns DU-145.
Experiment [7] relates to A498.
For experiment [8], the system named is A549.
The test system of experiment [9] is HCT-116.
Experiment [10] deals with LOX IMVI.
For experiment [11], the system named is OVCAR-5.
Experiment [12] concerns SK-OV-3.
Experiment [13] concerns SW-620.
Experiment [14] deals with OVCAR-8.
Experiment [15] has as its system COLO 205.
The subject of experiment [16] is HOP-92.
For experiment [17], the system named is EKVX.
In experiment [18] the test system is SF-539.
Experiment [19] deals with SR.
Experiment [20] has as its system HT-29.

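Dose response: 5 concentrations. Exposure: 48 h. Format: 96-well plates. Endpoint: linear interpolation; highest concentration if not reached. Abbreviation: GI50, concentration required for 50% inhibition of growth.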 The source made the active and inactive calls. No stated cut-off is given here; in the data, active = GI50 up to about 1.1 µM and inactive = higher. Bounds are passed on as bounds.

As to `COc1cc(/C=C/C(=O)Oc2ccc(NC(C)=O)cc2)ccc1C(=O)OCc1ccccc1`, the GI50 in experiment [1] is > 100 µM (inactive); in experiment [2], 41 µM (inactive); in [3] it was 53.8 µM (inactive); in [4], > 85.9 µM (inactive); in experiment [5] it was > 100 µM (inactive); in experiment [6], > 77.3 µM (inactive). Moreover, the GI50 in [7] was 60.3 µM (inactive); in [8], > 97.1 µM (inactive); in experiment [9], > 100 µM (inactive); in experiment [10], 67.8 µM (inactive); in [11], > 100 µM (inactive); in experiment [12], 48.4 µM (inactive). The GI50 in experiment [13] is > 100 µM (inactive); in experiment [14], > 88.9 µM (inactive); in [15], > 100 µM (inactive); in experiment [16], 74.3 µM (inactive); in [17] it was > 100 µM (inactive); in experiment [18], 36.3 µM (inactive). The GI50 in [19] and in experiment [20] was > 100 µM (inactive) in each case.

Take `CC(C)=CCC/C(C)=C/CC/C(C)=C/CC/C(=C/CC/C(C)=C\CC/C(C)=C/CC/C(C)=C/CC/C(C)=C/Cc1cc(O)ccc1O)CO`: the GI50 is 7.98 µM (inactive) in experiment [1]; 3.08 µM (inactive) in experiment [2]; 11.3 µM (inactive) in experiment [3]; 1.57 µM (inactive) in experiment [4]; 2.29 µM (inactive) in experiment [5]; 32.6 µM (inactive) in experiment [6]. Further, the GI50 was 5.33 µM (inactive) in experiment [7]; 4.14 µM (inactive) in experiment [8]; 2.84 µM (inactive) in experiment [9]; 2.94 µM (inactive) in [10]; 25.4 µM (inactive) in experiment [11]; 10.9 µM (inactive) in [12]. Moreover, the GI50 in experiment [13] is 8.71 µM (inactive); in experiment [14], 3.75 µM (inactive); in [15], 2.28 µM (inactive); in [16], 9.59 µM (inactive); in experiment [17] it was 12.1 µM (inactive); in [18], 0.824 µM (active). Besides, the values for the GI50 in [19] and in experiment [20] were 3.26 µM (inactive) and 4.52 µM (inactive), respectively.

The term GI50 denotes the concentration at which growth is held to half of that of the control.
